In the test the target is Glutamate receptor ionotropic, NMDA 2B (Homo sapiens, UniProt Q13224). The experiment in a line: FLIPR Assay: At the assay day cells were washed 3× with assay buffer, 10 μL buffer remained in the wells after washing. 10 μL Ca kit loading buffer (AAT Bioquest) was added to the cells and the plates were incubated with lid for 60 minutes at r.t. 20 μl assay buffer containing 60 μM glycine (20 μM final) and 3 μM glutamate (1 μM final) was added to column 1-23. Fluorescence (indicating the calcium influx as a result of the NR1/NR2B ion channel activation) was read on the FLIPRtetra device for 60 seconds to monitor the glutamate induced effects. After 2 minutes 20 μL of compound or controls (row 1-22) in assay buffer were carefully added to the wells. […] Each assay microtiter plate contained wells (in column 23 or 24) with DMSO controls instead of compound as controls for glycine/glutamate induced fluorescence (high controls) and wells with 1 μM of a reference NR2b NAM as low controls (Compound 22; reference: Layton, Mark E et al, ACS Chemical Neuroscience 2011, 2(7), 352-362).
Sequence of Glutamate receptor ionotropic, NMDA 2B (Q13224 whole entry): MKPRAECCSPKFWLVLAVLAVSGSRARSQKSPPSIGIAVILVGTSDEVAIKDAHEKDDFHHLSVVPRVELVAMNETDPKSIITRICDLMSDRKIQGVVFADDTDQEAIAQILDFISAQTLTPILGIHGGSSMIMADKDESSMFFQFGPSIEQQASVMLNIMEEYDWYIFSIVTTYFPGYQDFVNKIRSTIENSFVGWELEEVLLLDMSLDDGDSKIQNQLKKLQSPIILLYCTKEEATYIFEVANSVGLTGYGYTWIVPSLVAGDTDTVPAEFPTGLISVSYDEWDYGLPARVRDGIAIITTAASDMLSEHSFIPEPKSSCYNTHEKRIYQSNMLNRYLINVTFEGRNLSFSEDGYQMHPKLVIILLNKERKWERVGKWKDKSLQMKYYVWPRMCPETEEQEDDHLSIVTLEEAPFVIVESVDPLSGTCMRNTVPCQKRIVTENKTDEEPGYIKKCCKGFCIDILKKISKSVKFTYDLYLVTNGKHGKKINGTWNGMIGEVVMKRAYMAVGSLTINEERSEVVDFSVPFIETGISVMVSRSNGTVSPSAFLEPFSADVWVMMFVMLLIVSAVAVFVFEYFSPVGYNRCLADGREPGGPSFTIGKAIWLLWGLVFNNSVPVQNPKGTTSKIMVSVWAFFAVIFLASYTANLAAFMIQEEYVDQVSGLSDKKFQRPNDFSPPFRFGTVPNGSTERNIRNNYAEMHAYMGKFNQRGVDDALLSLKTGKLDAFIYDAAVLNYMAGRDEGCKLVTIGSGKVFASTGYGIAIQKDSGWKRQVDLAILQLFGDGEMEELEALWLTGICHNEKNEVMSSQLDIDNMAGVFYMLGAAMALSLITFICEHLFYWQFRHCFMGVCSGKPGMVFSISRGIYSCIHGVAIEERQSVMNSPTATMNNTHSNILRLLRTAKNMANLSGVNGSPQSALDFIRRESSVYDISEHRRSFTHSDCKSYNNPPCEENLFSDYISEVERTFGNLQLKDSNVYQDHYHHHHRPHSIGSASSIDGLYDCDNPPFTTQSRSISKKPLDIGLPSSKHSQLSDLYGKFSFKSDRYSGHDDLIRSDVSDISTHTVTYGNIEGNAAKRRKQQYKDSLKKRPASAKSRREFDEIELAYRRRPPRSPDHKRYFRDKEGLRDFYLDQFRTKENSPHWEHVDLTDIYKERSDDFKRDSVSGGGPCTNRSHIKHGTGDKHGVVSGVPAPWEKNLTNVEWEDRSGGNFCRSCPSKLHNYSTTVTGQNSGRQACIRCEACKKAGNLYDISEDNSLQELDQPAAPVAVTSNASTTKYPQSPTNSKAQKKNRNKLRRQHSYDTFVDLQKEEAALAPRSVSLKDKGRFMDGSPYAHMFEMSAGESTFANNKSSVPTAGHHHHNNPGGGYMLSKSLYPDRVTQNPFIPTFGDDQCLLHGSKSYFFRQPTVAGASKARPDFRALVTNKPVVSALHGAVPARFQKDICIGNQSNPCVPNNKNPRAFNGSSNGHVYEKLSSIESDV

For the molecule `Cc1cccc(COC(=O)N2CCOC(c3nc4cncnc4[nH]3)C2)c1F` (stereo not given), the IC50 was found to be 83 nM.
As to `O=C(OCc1ccc(F)cc1)N1CCOC(c2nc3cncnc3[nH]2)C1` (stereo not given), the half-maximal inhibitory concentration (IC50) was 107 nM.
The same measure for `Cc1cccc(COC(=O)N2CCOC(c3nc4cncnc4[nH]3)C2)c1` (stereo not given): 322 nM; for `O=C(OCc1ccccc1)N1CCOC(c2nc3cncnc3[nH]2)C1` (stereo not given): 114 nM; for `Cc1ncnc2[nH]c(C3CN(C(=O)OCc4ccc(F)cc4)CCO3)nc12` (stereo not given): 637 nM.
The same measure for `O=C(OCc1cccc(F)c1)N1CCOC(c2nc3cncnc3[nH]2)C1` (stereo not given): 295 nM; for `O=C(OCc1ccccc1Cl)N1CCOC(c2nc3cncnc3[nH]2)C1` (stereo not given): 88 nM.
The same measure for `O=C(OCc1c(F)cc(F)cc1F)N1CCOC(c2nc3cncnc3[nH]2)C1` (stereo not given): 84 nM.
For the molecule `O=C(OCc1ccc(Cl)c(F)c1)N1CCOC(c2nc3cncnc3[nH]2)C1` (stereo not given), the half-inhibitory concentration (IC50) was 314 nM.
Take `O=C(OCc1ccc(F)cc1F)N1CCOC(c2nc3cncnc3[nH]2)C1` (stereo not given): the IC50 came out at 102 nM.
The same measure for `Cc1ncnc2[nH]c(C3CN(C(=O)OCc4ccccc4F)CCO3)nc12` (stereo not given): 385 nM; for `O=C(OCc1ccc(F)cc1Cl)N1CCOC(c2nc3cncnc3[nH]2)C1` (stereo not given): 90 nM.
As for `O=C(OCc1c(F)cccc1F)N1CCOC(c2nc3cncnc3[nH]2)C1` (stereo not given), the figure is 111 nM.
On to `Cc1ccc(COC(=O)N2CCOC(c3nc4cncnc4[nH]3)C2)cc1` (stereo not given), for which the concentration for half-maximal inhibition (IC50) was determined as 67 nM.
The same measure for `Cc1cc(F)ccc1COC(=O)N1CCOC(c2nc3cncnc3[nH]2)C1` (stereo not given): 234 nM.
The same measure for `O=C(OCc1ccc(Cl)cc1)N1CCOC(c2nc3cncnc3[nH]2)C1` (stereo not given): 113 nM; for `Cc1c(F)cccc1COC(=O)N1CCOC(c2nc3cncnc3[nH]2)C1` (stereo not given): 520 nM.
As for `Cc1ccc(COC(=O)N2CCO[C@H](c3nc4cncnc4[nH]3)C2)cc1F`, the figure is 100 nM; as for `O=C(OCc1ccc(C(F)F)cc1)N1CCOC(c2nc3cncnc3[nH]2)C1` (stereo not given), 45 nM.
On to `Cc1ccc(COC(=O)N2CCOC(c3nc4c(C)ncnc4[nH]3)C2)cc1` (stereo not given), for which the IC50 is 150 nM.
The same measure for `Cc1ccc(COC(=O)N2CCOC(c3nc4cncnc4[nH]3)C2)c(F)c1` (stereo not given): 49 nM.
The same measure for `O=C(OCc1cccc(F)c1F)N1CCOC(c2nc3cncnc3[nH]2)C1` (stereo not given): 60 nM; for `Cc1cccc(F)c1COC(=O)N1CCOC(c2nc3cncnc3[nH]2)C1` (stereo not given): 118 nM; for `O=C(OCc1ccccc1F)N1CCOC(c2nc3cncnc3[nH]2)C1` (stereo not given): 74 nM.
In the case of `O=C(OCc1ccc(F)c(F)c1)N1CCOC(c2nc3cncnc3[nH]2)C1` (stereo not given), the IC50 came out at 520 nM.

The record behind these values is ChEMBL document CHEMBL5729184, “Purine derivatives and the use thereof as medicament” (2022).
